Some test systems named below: TK-10 renal; U251 CNS; SR leukemia; RPMI-8226 leukemia; COLO 205 colon; SK-MEL-2 melanoma; OVCAR-5 ovarian; DU-145 prostate; SK-OV-3 ovarian; HS 578T breast.
What all share (assay): NCI anticancer screen, dose series, 48 h

Structures are written as SMILES. Where “and” joins values, the source holds several entries; their conditions need not be identical. Equal entries are not always repeated.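 Test compounds were applied to cells in 96-well plates for 48 hours at 5 doses. At the GI50, growth is halved. At the TGI there is no net growth.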

Take `COc1ccc([C@@H](O)c2cc(-c3ncnc4cc(N5CCOCC5)ccc34)c(F)cc2Cl)nn1`: the GI50 is 1.95 µM with TK-10 renal; 6.22 µM in the assay on U251 CNS; 7.06 µM in the assay with SR leukemia; 3.58 µM in the assay on RPMI-8226 leukemia; 2.85 µM in the assay with COLO 205 colon; 7.37 µM in the assay with SK-MEL-2 melanoma. In addition, the GI50 was 7.2 µM with OVCAR-5 ovarian, 3.89 µM in the assay with DU-145 prostate, 1.27 µM with SK-OV-3 ovarian and 0.75 µM in the assay on HS 578T breast. The TGI in the assay on TK-10 renal was 17.7 µM; with U251 CNS, 53.8 µM; with SR leukemia it was 34.6 µM; in the assay with RPMI-8226 leukemia, 22.4 µM; in the assay on COLO 205 colon, 16.5 µM; in the assay with SK-MEL-2 melanoma it was 25.3 µM. The TGI in the assay on OVCAR-5 ovarian is more than 100 µM; with DU-145 prostate, more than 100 µM; in the assay on SK-OV-3 ovarian, 10.7 µM; in the assay on HS 578T breast it was 15.3 µM.
Consider `COc1cc2c(c(OC)c1OC)-c1ccc(O)c(=O)cc1[C@@H](NC(C)=O)CC2`, for which the TGI is more than 100 µM in the assay with TK-10 renal; > 100 µM and 35.4 µM in the assay with U251 CNS; 97.9 µM and 18.1 µM in the assay with SR leukemia; > 100 µM and 36.9 µM in the assay on RPMI-8226 leukemia; > 100 µM and 35.4 µM in the assay with COLO 205 colon; more than 100 µM in the assay with SK-MEL-2 melanoma. The TGI with OVCAR-5 ovarian is more than 100 µM; in the assay on DU-145 prostate, more than 100 µM; with SK-OV-3 ovarian, more than 100 µM; with HS 578T breast, > 100 µM and 71.4 µM. Moreover, the GI50 is 5.93 µM in the assay on U251 CNS; 4.74 µM in the assay on SR leukemia; 8.15 µM with RPMI-8226 leukemia; 4.1 µM in the assay on COLO 205 colon; 20 µM with SK-MEL-2 melanoma; 22.7 µM in the assay with OVCAR-5 ovarian. Besides, the figures for the GI50 with DU-145 prostate, in the assay with SK-OV-3 ovarian and in the assay on HS 578T breast were 9.82 µM, 11 µM and 14.3 µM, respectively.
`COc1cc2ncnc3c2cc1OCCCCCN(C)Cc1ccc(Br)cc1N3`: the GI50 in the assay with TK-10 renal was 0.186 µM and 0.166 µM; in the assay with U251 CNS, 34.3 µM and 5.33 µM; in the assay with SR leukemia it was 9.25 µM and 3.38 µM; in the assay on RPMI-8226 leukemia it was 7.39 µM and 3.92 µM; in the assay on COLO 205 colon, 5.68 µM and 4.67 µM; in the assay on SK-MEL-2 melanoma, 6.37 µM and 2.2 µM. Also, the GI50 in the assay on OVCAR-5 ovarian was 12.9 µM and 1.87 µM; in the assay with DU-145 prostate, 0.676 µM and 0.555 µM; in the assay with SK-OV-3 ovarian, 0.315 µM; in the assay on HS 578T breast, 10.2 µM and 1.52 µM. The TGI in the assay on TK-10 renal, in the assay on U251 CNS, in the assay on SR leukemia, in the assay on RPMI-8226 leukemia, in the assay with COLO 205 colon and in the assay with SK-MEL-2 melanoma was more than 100 µM throughout. Also, the TGI in the assay with OVCAR-5 ovarian is more than 100 µM; with DU-145 prostate, more than 100 µM; in the assay on SK-OV-3 ovarian, 1.09 µM; in the assay on HS 578T breast, more than 100 µM.
Regarding `COC(=O)[C@H]1[C@H]2C[C@@H]3c4[nH]c5cc(OC)ccc5c4CCN3C[C@H]2C[C@@H](OC(=O)/C=C/c2cc(OC)c(OC)c(OC)c2)[C@@H]1OC`, the GI50 with TK-10 renal is 3.35 µM; in the assay with U251 CNS, 3.58 µM; in the assay with SR leukemia, 2.48 µM; with RPMI-8226 leukemia it was 4.05 µM; in the assay with COLO 205 colon it was 3.69 µM; in the assay on SK-MEL-2 melanoma, 5.73 µM. The GI50 was 19.3 µM in the assay on OVCAR-5 ovarian, 5.88 µM with DU-145 prostate, 15.4 µM in the assay on SK-OV-3 ovarian and 5.77 µM in the assay on HS 578T breast. The TGI with TK-10 renal was found to be 11.3 µM; with U251 CNS it was 14.6 µM; in the assay on SR leukemia, 6.63 µM; in the assay on RPMI-8226 leukemia it was 85.1 µM; in the assay on COLO 205 colon, 14.8 µM; with SK-MEL-2 melanoma it was 19.8 µM. The TGI in the assay on OVCAR-5 ovarian is 56.7 µM; with DU-145 prostate, more than 100 µM; in the assay with SK-OV-3 ovarian, 32.3 µM; with HS 578T breast it was 39.5 µM.
As for `NNS(=O)(=O)c1cc(C(=O)O)cc(C(=O)O)c1`, the TGI in the assay on TK-10 renal, with U251 CNS, in the assay with SR leukemia, in the assay on RPMI-8226 leukemia, with COLO 205 colon and with SK-MEL-2 melanoma was more than 100 µM in each case. Besides, the TGI in the assay with OVCAR-5 ovarian, in the assay on DU-145 prostate, in the assay on SK-OV-3 ovarian and in the assay with HS 578T breast was more than 100 µM each time.
On to `Cc1cnc(Nc2ccc(OCCN3CCCC3)cc2)nc1Nc1cccc(S(=O)(=O)NC(C)(C)C)c1`, for which the GI50 is 0.149 µM and 0.424 µM with TK-10 renal; 0.808 µM and 1.35 µM with U251 CNS; 0.247 µM and 0.502 µM in the assay with SR leukemia; 1.23 µM and 1.09 µM with RPMI-8226 leukemia; 0.72 µM with COLO 205 colon; 0.17 µM and 0.759 µM with SK-MEL-2 melanoma. In addition, the GI50 with OVCAR-5 ovarian is 0.151 µM and 0.928 µM; in the assay with DU-145 prostate, 0.252 µM and 1.16 µM; in the assay with SK-OV-3 ovarian, 0.171 µM and 0.631 µM; in the assay with HS 578T breast it was 0.181 µM and 0.568 µM. The TGI in the assay on TK-10 renal was 3.7 µM and 1.85 µM; in the assay on U251 CNS, 17.2 µM and > 10 µM; with SR leukemia, 2.34 µM and 5.11 µM; in the assay with RPMI-8226 leukemia, 6.51 µM and > 6.61 µM; with COLO 205 colon, 0.859 µM and 2.55 µM; in the assay with SK-MEL-2 melanoma, 2.68 µM and > 10 µM. Also, the TGI was 4.51 µM and > 10 µM with OVCAR-5 ovarian; 13.6 µM and > 10 µM in the assay on DU-145 prostate; 2.62 µM and 3.14 µM in the assay with SK-OV-3 ovarian; 2.28 µM and 3.58 µM with HS 578T breast.
As to `CSc1nsc(S/C=C\C(=O)c2ccc(C)cc2)n1`, the GI50 is 18.6 µM in the assay with TK-10 renal; 17.2 µM with U251 CNS; 1.25 µM in the assay on SR leukemia; 43 µM in the assay with RPMI-8226 leukemia; 25.5 µM in the assay on COLO 205 colon; 35.7 µM in the assay on SK-MEL-2 melanoma. Further, the GI50 is 22.7 µM in the assay on OVCAR-5 ovarian, 20.5 µM in the assay on DU-145 prostate, 60.7 µM in the assay with SK-OV-3 ovarian and 0.187 µM with HS 578T breast. Also, the TGI in the assay with TK-10 renal is 33.7 µM; in the assay with U251 CNS it was 41.5 µM; with SR leukemia, 5.61 µM; with RPMI-8226 leukemia, more than 100 µM; with COLO 205 colon, more than 63.7 µM; in the assay on SK-MEL-2 melanoma it was more than 100 µM. The TGI in the assay with OVCAR-5 ovarian was 49.6 µM; in the assay with DU-145 prostate it was more than 49.5 µM; in the assay with SK-OV-3 ovarian it was more than 100 µM; with HS 578T breast it was 6.33 µM.

The record behind these values is PubChem BioAssay (NCI).
